# Data: patent US20130035256A1, “Chimeric Polypeptides Useful in Proximal and Dynamic High-Throughput Screening Methods” (ADDEX PHARMA SA, priority 2010, published 2013)
# Counter-ions that a name gives are not always drawn. Marks after values point to notes of the source that are not given here.
# Assays:
# [1] = biological target: T1, chimeric M4R (RGLG-2) (Homo sapiens, UniProt P08173); assay: BRET assay of the invention, cells co-expressing chimeric M4R (RGLG-2) and FP-Gγ9; assay type: cell-based; conditions: for Invention assay % stim: compound tested alone; for Invention assay % enh: in presence of EC20 value of Ach; for Invention assay % inh: in presence of EC80 of Ach
# T1 construct: ID; NOs; expressed in transfected cells
# Method: The same cells as described for FIG. 10 A were used. […] The decrease of the signal below baseline in the PTX-treated condition confirms a constitutive activity that has been described for the M4R. […]
# A typical experiment has the following sequence.
# (§1) The assay of the present invention was compared with a state of the art calcium based assay. […] In calcium-based assay, a calcium flux is measured in cells co-expressing recombinant M4R and modified Gαq. In the assay in accordance with the present invention, BRET in measured in cells co-expressing a chimeric M4R according to RGLG-2 (construct and cell-line from FIG. 2C, Table 6) and FP-Gγ9 (as described in FIG. 10A). The data represent mean values and they are normalized to the maximal effect of the orthosteric agonist after the subtraction of the basal values.
# [2] = biological target: T2, M4R (Homo sapiens, UniProt P08173); assay: Calcium-based assay, calcium flux in cells co-expressing recombinant M4R and modified Gαq; assay type: cell-based; conditions: for Calcium-based assay % stim: compound tested alone; for Calcium-based assay % enh: in presence of EC20 value of Ach; for Calcium-based assay % inh: in presence of EC80 of Ach
# T2 construct: expressed in transfected cells
# T2 sequence (P08173 1-479): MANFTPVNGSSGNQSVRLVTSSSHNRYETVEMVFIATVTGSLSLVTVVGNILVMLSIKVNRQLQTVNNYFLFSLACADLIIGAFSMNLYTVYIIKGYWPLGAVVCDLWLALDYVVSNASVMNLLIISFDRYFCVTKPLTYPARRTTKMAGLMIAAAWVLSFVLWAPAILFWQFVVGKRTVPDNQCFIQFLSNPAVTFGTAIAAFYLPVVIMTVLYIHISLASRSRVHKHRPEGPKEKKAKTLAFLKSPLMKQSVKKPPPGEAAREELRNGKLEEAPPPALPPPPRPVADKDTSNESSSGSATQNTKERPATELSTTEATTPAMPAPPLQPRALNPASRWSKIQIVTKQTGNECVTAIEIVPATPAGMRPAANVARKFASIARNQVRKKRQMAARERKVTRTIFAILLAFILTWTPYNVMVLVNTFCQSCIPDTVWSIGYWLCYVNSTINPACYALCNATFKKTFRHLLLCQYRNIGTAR
# Method: as §1
# [3] = activity @ 30uM or 30 ug/ml, normalized to maximal effect of the orthosteric agonist
# T1 sequence (P08173 with tags, fused parts or gaps): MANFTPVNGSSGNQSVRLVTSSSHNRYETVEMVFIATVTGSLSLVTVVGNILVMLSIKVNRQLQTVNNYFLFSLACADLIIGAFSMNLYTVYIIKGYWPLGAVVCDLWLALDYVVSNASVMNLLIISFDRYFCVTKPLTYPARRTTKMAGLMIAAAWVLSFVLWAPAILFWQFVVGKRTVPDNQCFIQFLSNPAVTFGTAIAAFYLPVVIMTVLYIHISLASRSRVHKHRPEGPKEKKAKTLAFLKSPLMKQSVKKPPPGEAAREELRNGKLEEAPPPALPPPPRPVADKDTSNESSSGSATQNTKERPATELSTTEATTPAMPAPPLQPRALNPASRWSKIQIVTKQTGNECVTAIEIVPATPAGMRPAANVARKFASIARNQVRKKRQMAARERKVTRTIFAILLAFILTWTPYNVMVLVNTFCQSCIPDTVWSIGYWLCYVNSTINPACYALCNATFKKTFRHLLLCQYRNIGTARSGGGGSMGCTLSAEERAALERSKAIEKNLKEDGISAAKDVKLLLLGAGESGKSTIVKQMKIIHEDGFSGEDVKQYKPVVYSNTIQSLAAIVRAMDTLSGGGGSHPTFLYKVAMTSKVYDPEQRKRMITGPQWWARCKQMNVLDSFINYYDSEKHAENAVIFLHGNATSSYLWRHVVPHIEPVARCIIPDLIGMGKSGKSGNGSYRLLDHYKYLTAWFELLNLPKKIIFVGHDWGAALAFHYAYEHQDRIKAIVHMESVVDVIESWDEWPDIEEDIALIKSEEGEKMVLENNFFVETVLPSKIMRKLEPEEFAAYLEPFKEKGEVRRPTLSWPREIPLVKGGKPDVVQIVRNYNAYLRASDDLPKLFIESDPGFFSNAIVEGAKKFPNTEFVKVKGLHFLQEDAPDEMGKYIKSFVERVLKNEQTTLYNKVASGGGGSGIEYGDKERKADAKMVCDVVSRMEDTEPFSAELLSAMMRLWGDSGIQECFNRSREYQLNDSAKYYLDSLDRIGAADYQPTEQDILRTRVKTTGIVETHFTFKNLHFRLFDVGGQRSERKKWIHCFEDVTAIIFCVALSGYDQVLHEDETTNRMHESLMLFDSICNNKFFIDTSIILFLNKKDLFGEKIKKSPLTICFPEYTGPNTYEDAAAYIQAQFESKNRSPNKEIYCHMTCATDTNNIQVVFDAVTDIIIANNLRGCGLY
Molecule,"Invention assay % stim [1, 3] [%]","Invention assay % enh [1, 3] [%]","Invention assay % inh [1, 3] [%]","Calcium-based assay % stim [2, 3] [%]","Calcium-based assay % enh [2, 3] [%]","Calcium-based assay % inh [2, 3] [%]",Calcium-based assay % enh ([2]; * @ 3uM or 3 ug/ml),Invention assay % stim ([1]; * @ 3uM or 3 ug/ml),Invention assay % enh ([1]; * @ 3uM or 3 ug/ml),Invention assay % inh ([1]; * @ 3uM or 3 ug/ml),Calcium-based assay % stim ([2]; * @ 3uM or 3 ug/ml),activation of the chimeric M4R (BRET) ([1]; increasing concentrations of ligand)
O=C1Nc2ccc(I)cc2/C1=C/c1cc(Br)c(O)c(Br)c1 [GW 5074],−6.8,2.8,13.5,879.7,151.4,−23.8,–,–,–,–,–,–
O=C1OC2(c3ccccc31)c1ccc(O)c(O)c1Oc1c2ccc(O)c1O [Gallein],3.9,5.1,5.3,11.7,42.9,−22.2,–,–,–,–,–,–
C[C@H](CCC(=O)O)C[C@H](C)C[C@H](C)C(=O)/C=C(\O)[C@H](C)C[C@H](C)C/C=C/[C@@H](C)[C@@H](O)[C@@H](C)[C@@H](O)C[C@@H]1CC[C@@](C)([C@H]2CC[C@@](C)([C@@H](C)O)O2)O1 [Ionomycin calcium salt],−11.8,−2.5,14.6,488.7,–,112.2,58.8* %,–,–,–,–,–
CN([C@@H](Cc1ccc(OS(=O)(=O)c2cccc3cnccc23)cc1)C(=O)N1CCN(c2ccccc2)CC1)S(=O)(=O)c1cccc2cnccc12 [KN-62],–,–,–,–,–,–,39.4* %,−0.8* %,−1.2* %,15.8* %,8.1* %,–
COc1nc2sc(C(=O)NC3CC3)c(N)c2c(C)c1Cl [LY2033298],–,–,–,–,–,–,–,–,–,–,–,activation
CCOC(=O)C1=C(C)NC(=S)NC1c1cccc(O)c1 (stereo not drawn) [Monastrol],−3.0,−0.1,7.0,4.1,44.7,−16.7,–,–,–,–,–,–
CCN1C(=O)C=CC1=O [N-Ethylmaleimide],−3.4,12.4,16.5,3.8,0.2,96.9,–,–,–,–,–,–
COC(=O)C1=C(C)NC(C)=C(C(=O)OC)C1c1ccccc1[N+](=O)[O-] [Nifedipine],−15.8,5.3,23.2,−0.9,8.7,34.8,–,–,–,–,–,–
CC[C@H]1/C=C/C=C/C[C@@H](C)[C@H](O)[C@@](C)(O)C(=O)[C@@H](C)[C@H](O)[C@@H](C)C(=O)[C@@H](C)[C@H](O)[C@@H](C)/C=C/C(=O)O[C@@H]2[C@H](C)[C@H](CC1)O[C@]1(CC[C@H](C)[C@H](C[C@@H](C)O)O1)[C@H]2C [Oligomycin],1.8,3.3,8.5,3.3,63.8,−21.6,–,–,–,–,–,–
Nc1c[n+](N2CCOCC2)no1.[Cl-] [SIN-1 chloride],−1.3,3.6,6.6,5.1,19.4,17.1,–,–,–,–,–,–
AG 10,−13.0,−0.1,8.6,2.3,3.8,41.6,–,–,–,–,–,–
Thapsigargin,−0.7,−4.2,10.8,129.5,49.8,11.6,–,–,–,–,–,–
